Here are results for 1 molecule from US12611409B2, “Combination therapy using a chemokine receptor 2 (CCR2) antagonist and a PD-1/PD-L1 inhibitor” (CHEMOCENTRYX, INC., priority 2017, dated 2026).

Series [1] can be described thus: Compound 1 plasma levels in the CT26 study. Format: in vivo, Balb/c mice. The following applies: oral gavage 30 mg/kg daily; day 3 and day 23 of dosing. The protocol:
Six days after subcutaneous CT26 implantation into the flanks of 9 wk female Balb/c mice (2.5×10^5/mouse), the recipients were randomized based on tumor size and treatment was begun. Mice received anti-PD-1 (RPM1-14 from BioXcell, Inc., catalog number BE0146) by IP injection on days 7, 10, 17 and 21 (200 μg/mouse), and received CCR2 antagonist Compound 1 (30 or 60 mg/kg) or vehicle by oral gavage every 24 hours starting day 7.

Series [2] concerns M-MDSCs and CD8 T cells in the CT26 tumor microenvironment. As to the kind of experiment: Quantitation of tumor-infiltrating cells per gram of CT26 tumor (flow cytometry). Format: in vivo, Balb/c mice. The text has this: CT26 is a Balb/c-derived colon adenocarcinoma that generates tumors when injected subcutaneously into Balb/c mice. Single cells were isolated from established subcutaneous CT26 tumors (28 days after injection) by mincing, digesting the tissue briefly with collagenase-D, and passing the slurry through 100 μm sieves. Cells were stained for flow cytometry and gated on live CD45^+ tumor-infiltrating leukocytes (FIG. 2).
Tumor-infiltrating cytotoxic T cells (Thy1^+/CD8^+) were quantitated by weighing the tumors before dissociation, allowing cells-per-gram of tumor to be calculated.
M-MDSCs were quantitated by weighing the tumors before dissociation, allowing cells-per-gram of tumor to be calculated.
The ratio in control treated mice (veh+iso) was 1:1, meaning one M-MDSC for every CD8 T cell. […] Treatment of Compound 1 alone yielded 10 CD8 T cells for every M-MDSC cell. Treatment with α-PD-1 […].
A general note: Flow cytometry measures light scatter and fluorescence of single cells or particles in a stream.

Turning to `C[C@H]1CN([C@@H]2CC[C@@](C(=O)N3COc4c(cc(C(F)(F)F)cc4C(F)(F)F)C3)(C3CC3)OC2)CC[C@@H]1c1cccc(C(=O)O)c1` [Compound 1], in series [1], the trough plasma levels entry is “at or above those required for full receptor coverage”. Besides, in series [2] (by day 24), the “M-MDSCs in the CT26 tumor microenvironment (cells per gram of tumor)” value is “reduces the population of M-MDSCs”. For the same molecule, in series [2] (calculated from cell counts of FIG. 10 and FIG. 11, control (veh+iso) 1:1), the “ratio of CD8 T cells to M-MDSCs” value is reported as 10 CD8 T cells for every M-MDSC.
